Assay: Promotion of dissolution of sitafloxacin by tartaric acid
Assay type: physicochemical
From the text: Accordingly, tartaric acid is preferably added in an amount of 0.1 to 1 mole, preferably 1/6 mole to 0.7 mole, more preferably 0.25 to 0.5 mole, especially about 0.5 mole to 1 mole of a quinolone compound, particularly sitafloxacin.

For `N[C@@H]1CN(c2c(F)cc3c(=O)c(C(=O)O)cn([C@@H]4C[C@@H]4F)c3c2Cl)CC12CC2` [sitafloxacin, (−)-7-[(7S)-7-amino-5-azaspirol[2.4]heptan-5-yl]-8-chloro-6-fluoro-1-[(1R,2S)-2-fluoro-1-cyclopropyl]-1,4-dihydro-4-oxo-3-quinolinecarboxylic acid], the “Effect for promoting dissolution of sitafloxacin” value (0.1 time molar amount (18.3 mg) of tartaric acid together with 500 mg of sitafloxacin (as an anhydrate)) was “marked improving effects” and the “Effect for promoting dissolution of sitafloxacin” value (0.5 time molar amount (92 mg) of tartaric acid in combination with 500 mg of sitafloxacin) was “effect becomes maximum”.

Source: patent US6861071B2, “Highly absorptive solid preparation” (Daiichi Pharmaceutical Co., Ltd., priority 2000, dated 2005)
